Laboratory results: ChEMBL document CHEMBL4732046, “A red-light-activated sulfonamide porphycene for highly efficient photodynamic therapy against hypoxic tumor” (Eur J Med Chem, 2021)
Activity calls are given as the source filed them. The calls are words filed in the database; no cut-off is given here.

What was measured:
B16 [1] = experiment: Antitumor activity against mouse B16 cells xenografted in C57BL/6 mouse assessed as tumor growth inhibition by measuring nuclear TUNEL-positive treated at high dose intratumorally once every 2 days for 2 weeks followed every dosing irradiated with 640 +/- 15 nm red LED for 4 hrs measured after 14 days treatment; type: functional, cell-based; conditions: time 14.0 day
A-375 [2] = experiment: Antiproliferative activity against human A-375 cells assessed as inhibition of cell proliferation irradiated with 640 +/- 15 nm red LED for 4 hrs in presence of 30 uM L-histidine measured after 24 hrs by MTT assay; type: functional, cell-based
HeLa = experiment: Photo-therapeutic index, ratio of LD50 for photocytotoxicity against human HeLa cells assessed as reduction in cell viability irradiated with 640 +/- 15 nm red LED for 4 hrs measured after 24 hrs by MTT assay to LD50 for cytotoxicity against human HeLa cells assessed as cell viability in dark measured after 24 hrs by MTT assay; type: functional
A-375 [3] = experiment: Antitumor activity against human A-375 cells xenografted in BALB/c mouse assessed as tumor growth inhibition by measuring nuclear TUNEL-positive treated at high dose intratumorally once every 2 days for 2 weeks followed every dosing irradiated with 640 +/- 15 nm red LED for 4 hrs measured after 14 days treatment; type: functional, cell-based; conditions: time 14.0 day
[4] = Toxicity in C57BL/6 mouse model assessed as effect on spleen treated intratumorally once every 2 days for 2 weeks followed every dosing irradiated with 640 +/- 15 nm red LED for 4 hrs measured upto 28 days by H and E staining dependent light microscopy based histopathological analysis; type: tissue-based; conditions: in vivo, other, time <=28 day
B16 [5] = experiment: Photocytotoxicity against mouse B16 cells assessed as reduction in cell viability irradiated with 640 +/- 15 nm red LED for 4 hrs measured after 24 hrs by MTT assay; type: functional, cell-based; conditions: B16, light or radiation study
A-375 [6] = experiment: Induction of morphological changes in human A-375 cells assessed as chromatin condensation at 100 to 300 nM incubated for 24 hrs by Hoechst 33258 staining based assay; type: functional, cell-based; conditions: dose 100-300 nM
B16 [7] = experiment: Induction of apoptosis in mouse B16 cells assessed as apoptotic cells at 400 nM irradiated with 640 +/- 15 nm red LED for 1 hrs after 24 hrs by Annexin V-FITC/propidium iodide staining based flow cytometric analysis relative to control; type: functional, cell-based
A-375 [8] = experiment: Antitumor activity against human A-375 cells xenografted in BALB/c mouse assessed as reduction in tumor volume at 50 uM, IT once every 2 days for 2 weeks followed every dosing irradiated with 640 +/- 15 nm red LED for 4 hrs; type: functional, cell-based
[9] = Drug uptake in mouse B16 cells incubated for 24 hrs in presence of 2-deoxyglucose and sodium azide by mito-tracker green based confocal microscopic method; type: ADME, cell-based; conditions: b16, 24 h
A-375 [10] = experiment: Induction of apoptosis in human A-375 cells assessed as increase in Bad level at 100 to 300 nM irradiated with 640 +/- 15 nm red LED for 1 hrs measured after 24 hrs by Western blot analysis; type: functional, cell-based; conditions: dose 100-300 nM
B16 [11] = experiment: Induction of apoptosis in mouse B16 cells assessed as increase in Bax level at 200 to 400 nM irradiated with 640 +/- 15 nm red LED for 1 hrs measured after 24 hrs by Western blot analysis; type: functional, cell-based; conditions: dose 200-400 nM
[12] = Drug uptake in mouse B16 cells upto 2 hrs by flow cytometric analysis; type: ADME, cell-based; conditions: b16, 2 h
B16 [13] = experiment: Antitumor activity against mouse B16 cells xenografted in C57BL/6J mouse assessed as reduction in tumor volume at high dose intratumorally once every 2 days for 2 weeks followed every dosing irradiated with 640 +/- 15 nm red LED for 4 hrs measured after 14 days treatment; type: functional, cell-based; conditions: time 14.0 day
B16 [14] = experiment: Induction of morphological changes in mouse B16 cells assessed as nuclear shrinkage at 200 to 400 nM incubated for 24 hrs by Hoechst 33258 staining based assay; type: functional, cell-based; conditions: dose 200-400 nM
[15] = Drug uptake in mouse B16 cells mitochondria incubated for 24 hrs by mito-tracker green based confocal microscopic method; type: ADME; conditions: b16, 24 h
A-375 [16] = experiment: Induction of apoptosis in human A-375 cells assessed as increase in cleaved caspase 3 level at 100 to 300 nM irradiated with 640 +/- 15 nm red LED for 1 hrs measured after 24 hrs by Western blot analysis; type: functional, cell-based; conditions: dose 100-300 nM
B16 [17] = experiment: Antitumor activity against mouse B16 cells xenografted in C57BL/6J mouse assessed as tumor growth inhibition at high dose intratumorally once every 2 days for 2 weeks followed every dosing irradiated with 640 +/- 15 nm red LED for 4 hrs measured after 14 days treatment; type: functional, cell-based; conditions: time 14.0 day
[18] = Toxicity in C57BL/6 mouse assessed as effect on creatine kinase level measured upto 14 days; conditions: in vivo, 336 h, time <=14 day
[19] = Toxicity in C57BL/6 mouse model assessed as change in white blood cell count measured after 14 days; type: tissue-based; conditions: 336 h, time 14 day
[20] = Toxicity in C57BL/6 mouse xenografted with mouse B16 cells assessed as body weight at high dose intratumorally once every 2 days for 2 weeks followed every dosing irradiated with 640 +/- 15 nm red LED for 4 hrs measured after 14 days treatment; conditions: in vivo, other, 336 h, time 14 day
B16 [21] = experiment: Induction of morphological changes in mouse B16 cells assessed as chromatin condensation at 200 to 400 nM incubated for 24 hrs by Hoechst 33258 staining based assay; type: functional, cell-based; conditions: dose 200-400 nM
[22] = Toxicity in C57BL/6 mouse model assessed as effect on kidney treated intratumorally once every 2 days for 2 weeks followed every dosing irradiated with 640 +/- 15 nm red LED for 4 hrs measured upto 28 days by H and E staining dependent light microscopy based histopathological analysis; type: tissue-based; conditions: in vivo, other, time <=28 day
A-375 [23] = experiment: Induction of morphological changes in human A-375 cells assessed as nuclear shrinkage at 100 to 300 nM incubated for 24 hrs by Hoechst 33258 staining based assay; type: functional, cell-based; conditions: dose 100-300 nM
A-375 [24] = experiment: Induction of apoptosis in human A-375 cells assessed as increase in cytochrome c level at 100 to 300 nM irradiated with 640 +/- 15 nm red LED for 1 hrs measured after 24 hrs by Western blot analysis; type: functional, cell-based; conditions: dose 100-300 nM
[25] = Toxicity in C57BL/6 mouse assessed as effect on aspartate aminotransferase level measured after 7 days; conditions: in vivo, 168 h, time 7 day
A-375 [26] = experiment: Antitumor activity against human A-375 cells xenografted in BALB/c mouse assessed as tumor growth inhibition at 50 uM, IT once every 2 days for 2 weeks followed every dosing irradiated with 640 +/- 15 nm red LED for 4 hrs; type: functional, cell-based
A-375 [27] = experiment: Antiproliferative activity against human A-375 cells assessed as inhibition of cell proliferation irradiated with 640 +/- 15 nm red LED for 4 hrs in presence of 30 uM D-mannitol measured after 24 hrs by MTT assay; type: functional, cell-based
B16 [28] = experiment: Induction of mitochondrial membrane potential disruption in mouse B16 cells assessed as reduction in red fluorescence upto 400 nM irradiated with 640 +/- 15 nm red LED for 1 hrs measured after 24 hrs by JC1 staining based fluorescence microscopy; type: functional, cell-based; conditions: dose nM <=400, time 24.0 hrs
A-375 [29] = experiment: Induction of intracellular reactive oxygen species production in human A-375 cells irradiated with 640 +/- 15 nm red LED for 1 hrs measured after 4 hrs by DCFH-DA probe based flow cytometry; type: functional, cell-based; conditions: dose nM <=300, time 4.0 hrs
B16 [30] = experiment: Induction of apoptosis in mouse B16 cells assessed as increase in Bad level at 200 to 400 nM irradiated with 640 +/- 15 nm red LED for 1 hrs measured after 24 hrs by Western blot analysis; type: functional, cell-based; conditions: dose 200-400 nM

CC(C)(C)C1=Cc2nc1ccc1[nH]c(cc1S(=O)(=O)NCCOCCO)c1nc(ccc3[nH]c2cc3C(C)(C)C)C(C(C)(C)C)=C1
Activity (B16 [1]): Active
Activity (A-375 [2]): Active
Ratio (HeLa): >2040
Activity (A-375 [3]): Active
Activity [4]: Non-Toxic
DC50 (B16 [5]): 323 nM
Activity (A-375 [6]): Active
Activity (B16 [7]): Active
Activity (A-375 [8]): Active
Drug uptake [9]: Not Active
Activity (A-375 [10]): Active
Activity (B16 [11]): Active
Drug uptake [12]: Active
Activity (B16 [13]): Active
Activity (B16 [14]): Active
Drug uptake [15]: Active
Activity (A-375 [16]): Active
Activity (B16 [17]): Active
Activity [18]: Non-Toxic
Activity [19]: Non-Toxic
Activity [20]: Non-Toxic
Activity (B16 [21]): Active
Activity [22]: Non-Toxic
Activity (A-375 [23]): Active
Activity (A-375 [24]): Active
Activity [25]: Toxic
Activity (A-375 [26]): Active
Activity (A-375 [27]): inactive
Activity (B16 [28]): Active
Activity (A-375 [29]): Dose-dependent effect
Activity (B16 [30]): Active
